We go through 22 compounds from US20070155746A1, “NOVEL SUBSTITUTED PYRIDINYLOXY AND PYRIMIDINYLOXY AMIDES USEFUL AS INHIBITORS OF PROTEIN KINASES” (KALYPSYS, INC., priority 2005, published 2007).

Format in all cases: biochemical
The target in test [1] is T1, human B-Raf protein kinase (Homo sapiens, UniProt P15056).
T1 construct: GST (N); purchased Upstate Inc. 14-530 (B-Raf); 14-420 (Mek1)
The experiment in a line: In vitro B-Raf/Mek1 composite kinase assay. The procedure:
In Vitro B-Raf/Mek1 Composite Kinase Assay
2.5 μl of B-Raf kinase buffer (20 mM MOPS [pH 7.2], 25 mM sodium glycerophosphate, 2 mM EGTA [pH 8.0], 1 mM sodium orthovanadate, 1 mM dithiothreitol, 10 mM MgCl2, 0.03% Brij-35, 0.3 mg/ml bovine serum albumin) containing lng of recombinant, N-terminal GST-tagged human B-Raf protein kinase (Δ1-415, Upstate Inc., cat. #14-530) is dispensed to wells of a 1536 multi-well white solid plate. 60 nl of 100× concentration of test compound in DMSO is dispensed to the well by passive pin transfer and incubated for 15 minutes at room temperature (approx. 22° C.). […] The assay plates are sealed and maintained in a humidified environment. After 2 hours, 2.5 μl of PKLight protein kinase assay reagent (Cambrex, cat. #LT07-501) is dispensed. After an additional 5 minute incubation at room temperature, luminescence activity is measured on a Molecular Devices Analyst multi-mode plate reader or other suitable plate reader. Kinase inhibition results in less ATP depletion, and therefore increased luminescence signal. Negative control activity is measured with DMSO lacking any test compound. The positive control is [N-(3-trifluoromethyl-4-chlorophenyl)-N′-(4-(2-methylcarbamoyl-pyridin-4-yl)oxyphenyl)urea], aka Bay 43-9006. Efficacy is measured as a percentage of positive control activity.

The target in a further test is T2, VEGFR2 kinase (Homo sapiens, UniProt P35968).
T2 construct: purchased Invitrogen Inc PV3660
The experiment in a line: In vitro VEGFR2 kinase assay. The procedure:
(§1) In Vitro VEGFR2 and PDGFRP Kinase Assays
(§2) 2.5 μl of ADP Quest assay buffer (DiscoverX Inc., cat. #90-0071) containing 20 ng VEGFR2 kinase (Invitrogen Inc, cat. #PV3660) or 25 ng PDGFRβ kinase (Invitrogen Inc., cat. #P3082) is dispensed to wells of a 1536 multi-well, black solid plate. 60 nl of 100× concentration of test compound in DMSO is dispensed to the well by passive pin transfer and incubated for 10 minutes at room temperature (approx. 22° C.). 2.5 μl of ADP Quest assay buffer containing 0.25 μg of poly Glu:Tyr (4:1) substrate peptide (Upstate Inc., cat. #12-440) and 60 μM ATP is then dispensed and the kinase reaction allowed to incubate at 30° C. for 2 hours. The assay plates are sealed and maintained in a humidified environment. After the 2 hour incubation, 2 μl of ADP Quest assay reagent A, followed by 2 μl of assay reagent B, is added. After an additional 30 minute incubation at room temperature, fluorescence intensity is measured on a Molecular Devices Aquest multi-mode plate reader or other suitable plate reader (fluorescence excitation filter: 530/25 [Peak(nm)/FWHM passband(nm)]; dichroic beamsplitter: 561 nm longpass; fluorescence emission filter: 580/10 [Peak(nm)/FWHM passband(nm)]. The assay measures the conversion of a non-fluoresecent molecule to fluorescent resorufin, which correlates with kinase activity. Negative control activity is measured with DMSO lacking any test compound. The positive control is [N-(3-trifluoromethyl-4-chlorophenyl)-N′-(4-(2-methylcarbamoyl-pyridin-4-yl)oxyphenyl)urea], aka Bay 43-9006. Efficacy is measured as a percentage of positive control activity.

The next test deals with T3, PDGFRβ kinase (Homo sapiens, UniProt P09619).
T3 construct: purchased Invitrogen Inc. P3082
The experiment in a line: In vitro PDGFRβ kinase assay. The method, then:
as §1, §2

Where only a bound is given, the exact number is not on record here.

T2 sequence (P35968 20-1356): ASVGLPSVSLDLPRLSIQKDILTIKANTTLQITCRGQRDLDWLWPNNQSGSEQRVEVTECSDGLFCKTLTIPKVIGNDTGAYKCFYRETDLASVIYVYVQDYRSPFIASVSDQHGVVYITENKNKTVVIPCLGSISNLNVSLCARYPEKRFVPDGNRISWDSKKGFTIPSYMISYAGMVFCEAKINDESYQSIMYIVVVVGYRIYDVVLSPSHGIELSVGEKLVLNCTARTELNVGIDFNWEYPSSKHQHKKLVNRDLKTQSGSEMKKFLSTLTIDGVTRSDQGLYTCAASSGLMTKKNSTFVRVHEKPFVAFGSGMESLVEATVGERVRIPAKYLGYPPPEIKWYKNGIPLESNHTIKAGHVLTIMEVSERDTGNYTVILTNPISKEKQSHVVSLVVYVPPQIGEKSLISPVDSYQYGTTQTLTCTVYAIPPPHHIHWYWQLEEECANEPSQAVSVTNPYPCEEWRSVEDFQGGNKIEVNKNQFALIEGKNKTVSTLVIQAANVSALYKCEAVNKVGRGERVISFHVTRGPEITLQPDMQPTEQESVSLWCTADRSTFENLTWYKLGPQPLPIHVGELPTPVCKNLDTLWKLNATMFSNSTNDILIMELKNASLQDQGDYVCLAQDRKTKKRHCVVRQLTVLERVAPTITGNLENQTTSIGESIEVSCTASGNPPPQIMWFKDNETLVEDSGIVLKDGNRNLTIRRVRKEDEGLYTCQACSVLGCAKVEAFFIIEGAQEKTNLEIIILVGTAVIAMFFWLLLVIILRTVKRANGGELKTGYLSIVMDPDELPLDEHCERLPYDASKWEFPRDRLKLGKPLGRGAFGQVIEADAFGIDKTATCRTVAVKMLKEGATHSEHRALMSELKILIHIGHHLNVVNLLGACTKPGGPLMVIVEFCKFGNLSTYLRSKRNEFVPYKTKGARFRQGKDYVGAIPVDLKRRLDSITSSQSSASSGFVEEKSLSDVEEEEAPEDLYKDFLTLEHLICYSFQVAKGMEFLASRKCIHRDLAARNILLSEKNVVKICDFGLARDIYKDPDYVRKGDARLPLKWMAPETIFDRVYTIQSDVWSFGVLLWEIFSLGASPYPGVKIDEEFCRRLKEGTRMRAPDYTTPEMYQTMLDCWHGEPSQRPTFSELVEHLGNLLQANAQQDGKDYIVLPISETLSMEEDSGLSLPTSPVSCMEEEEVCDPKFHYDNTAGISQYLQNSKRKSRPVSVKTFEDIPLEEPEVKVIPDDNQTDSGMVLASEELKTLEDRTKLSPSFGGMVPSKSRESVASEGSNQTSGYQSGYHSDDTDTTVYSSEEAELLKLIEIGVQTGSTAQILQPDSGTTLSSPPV
T3 sequence (P09619 33-1106): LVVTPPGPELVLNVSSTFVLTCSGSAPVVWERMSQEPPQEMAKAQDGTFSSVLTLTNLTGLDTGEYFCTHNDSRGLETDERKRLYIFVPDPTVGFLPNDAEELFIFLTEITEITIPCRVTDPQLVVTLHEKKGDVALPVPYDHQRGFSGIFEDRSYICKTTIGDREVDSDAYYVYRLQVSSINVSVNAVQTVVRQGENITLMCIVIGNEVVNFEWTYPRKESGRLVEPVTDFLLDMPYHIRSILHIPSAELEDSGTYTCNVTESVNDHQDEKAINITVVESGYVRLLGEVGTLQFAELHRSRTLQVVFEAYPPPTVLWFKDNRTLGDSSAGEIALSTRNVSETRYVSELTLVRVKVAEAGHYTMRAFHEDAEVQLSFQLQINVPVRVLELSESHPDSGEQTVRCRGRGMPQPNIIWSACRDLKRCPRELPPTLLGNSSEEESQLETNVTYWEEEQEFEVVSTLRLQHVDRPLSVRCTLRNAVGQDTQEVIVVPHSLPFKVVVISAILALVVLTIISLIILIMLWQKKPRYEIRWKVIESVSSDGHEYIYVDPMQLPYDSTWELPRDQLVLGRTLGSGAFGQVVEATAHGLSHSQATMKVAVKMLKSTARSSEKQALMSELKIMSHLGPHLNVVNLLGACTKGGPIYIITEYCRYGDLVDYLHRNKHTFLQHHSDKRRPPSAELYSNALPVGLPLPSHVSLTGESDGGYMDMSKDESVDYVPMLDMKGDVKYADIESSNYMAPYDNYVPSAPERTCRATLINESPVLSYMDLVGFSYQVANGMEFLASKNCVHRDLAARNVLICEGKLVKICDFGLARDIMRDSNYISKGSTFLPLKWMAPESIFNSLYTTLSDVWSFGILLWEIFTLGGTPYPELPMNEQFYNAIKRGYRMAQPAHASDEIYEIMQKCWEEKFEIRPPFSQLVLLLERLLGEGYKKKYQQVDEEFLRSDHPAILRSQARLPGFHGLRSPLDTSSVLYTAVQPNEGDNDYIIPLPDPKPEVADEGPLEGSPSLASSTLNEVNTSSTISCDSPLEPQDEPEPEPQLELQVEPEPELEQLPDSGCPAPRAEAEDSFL
T1 sequence (P15056 416-766): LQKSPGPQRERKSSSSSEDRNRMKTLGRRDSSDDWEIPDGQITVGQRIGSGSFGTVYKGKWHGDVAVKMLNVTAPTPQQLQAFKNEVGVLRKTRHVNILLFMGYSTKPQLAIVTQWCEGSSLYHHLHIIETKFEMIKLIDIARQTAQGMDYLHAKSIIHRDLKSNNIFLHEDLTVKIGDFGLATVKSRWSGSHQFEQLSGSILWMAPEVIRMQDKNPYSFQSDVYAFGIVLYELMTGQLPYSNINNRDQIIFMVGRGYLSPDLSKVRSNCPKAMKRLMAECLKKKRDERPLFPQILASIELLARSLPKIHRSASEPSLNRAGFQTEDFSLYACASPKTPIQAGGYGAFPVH

For the compound `O=C(Nc1cccc(Oc2ccnc(-c3nnco3)c2)c1)c1cccc(N2CCOCC2)c1` [Example 12, 3-Morpholin-4-yl-N-[3-(2-[1,3,4]oxadiazol-2-yl-pyridin-4-yloxy)-phenyl]-benzamide], the IC50 in test [1] is above 10 µM; against VEGFR2 kinase, at most 10 µM; against PDGFRβ kinase, at most 10 µM.
As for `Cn1cc(-c2cc(Oc3cccc(NC(=O)c4ccc5[nH]cnc5c4)c3)ccn2)cn1` [Example 64, N-(3-(2-(1-Methyl-1H-pyrazol-4-yl)pyridin-4-yloxy)phenyl)-1H-benzo[d]imidazole-5-carboxamide], the IC50 is at most 10 µM in test [1], at most 10 µM at VEGFR2 kinase and above 10 µM on PDGFRβ kinase.
With `Cn1cc(-c2cc(Oc3cccc(NC(=O)c4ccc(-n5ccnc5)cc4)c3)ccn2)cn1` [Example 60, 4-(1H-Imidazol-1-yl)-N-(3-(2-(1-methyl-1H-pyrazol-4-yl)pyridin-4-yloxy)phenyl)benzamide], the IC50 is at most 10 µM in test [1], above 10 µM on VEGFR2 kinase and above 10 µM against PDGFRβ kinase.
Regarding `CCCOc1cccc(C(=O)Nc2cccc(Oc3ccnc(-c4cnn(C)c4)c3)c2)c1` [Example 73, N-(3-(2-(1-Methyl-1H-pyrazol-4-yl)pyridin-4-yloxy)phenyl)-3-propoxybenzamide], the IC50 (in test [1]; at VEGFR2 kinase; against PDGFRβ kinase) was above 10 µM throughout.
Turning to `Cn1cc(-c2cc(Oc3cccc(NC(=O)c4cccc(-n5cnnc5)c4)c3)ccn2)cn1` [Example 38, N-(3-(2-(1-Methyl-1H-pyrazol-4-yl)pyridin-4-yloxy)phenyl)-3-(4H-1,2,4-triazol-4-yl)benzamide], the IC50 was at most 10 µM in test [1], at most 10 µM at VEGFR2 kinase and above 10 µM against PDGFRβ kinase.
Turning to `Cn1cc(-c2cc(Oc3cccc(NC(=O)c4ccc5c(c4)OCO5)c3)ccn2)cn1` [Example 61, N-(3-(2-(1-Methyl-1H-pyrazol-4-yl)pyridin-4-yloxy)phenyl)benzo[d][1,3]dioxole-5-carboxamide], the IC50 is at most 10 µM in test [1], above 10 µM at VEGFR2 kinase and above 10 µM against PDGFRβ kinase.
With `Cn1cc(-c2cc(Oc3cccc(NC(=O)c4ccccc4C(F)(F)F)c3)ccn2)cn1` [Example 43, N-(3-(2-(1-Methyl-1H-pyrazol-4-yl)pyridin-4-yloxy)phenyl)-2-(trifluoromethyl)benzamide], the IC50 (in test [1]; at VEGFR2 kinase; on PDGFRβ kinase) was at most 10 µM in each case.
On to `Cn1cc(-c2cc(Oc3cccc(NC(=O)c4cccc(-n5cccc5)c4)c3)ccn2)cn1` [Example 58, N-(3-(2-(1-Methyl-1H-pyrazol-4-yl)pyridin-4-yloxy)phenyl)-3-(1H-pyrrol-1-yl)benzamide], for which the IC50 (in test [1]; against VEGFR2 kinase; on PDGFRβ kinase) was above 10 µM in each case.
Consider `Cn1cc(-c2cc(Oc3cccc(NC(=O)c4ccc(C#N)cc4)c3)ccn2)cn1` [Example 47, 4-Cyano-N-(3-(2-(1-methyl-1H-pyrazol-4-yl)pyridin-4-yloxy)phenyl)benzamide], for which the IC50 in test [1] was at most 10 µM; at VEGFR2 kinase it was above 10 µM; against PDGFRβ kinase, above 10 µM.
Turning to `Cn1cc(-c2cc(Oc3cccc(NC(=O)c4ccc5c(c4)CCO5)c3)ccn2)cn1` [Example 67, N-(3-(2-(1-Methyl-1H-pyrazol-4-yl)pyridin-4-yloxy)phenyl)-2,3-dihydrobenzofuran-5-carboxamide], the IC50 (in test [1]; against VEGFR2 kinase; against PDGFRβ kinase) was above 10 µM throughout.
Consider `Cn1cc(-c2cc(Oc3cccc(NC(=O)c4cccc5c4OCO5)c3)ccn2)cn1` [Example 29, N-(3-(2-(1-Methyl-1H-pyrazol-4-yl)pyridin-4-yloxy)phenyl)benzo[d][1,3]dioxole-4-carboxamide], for which the IC50 is at most 10 µM in test [1], above 10 µM against VEGFR2 kinase and above 10 µM against PDGFRβ kinase.
`O=C(Cc1ccc(F)c(C(F)(F)F)c1)Nc1cccc(Oc2ccnc(-c3nnco3)c2)c1` [Example 1, N-(3-(2-(1,3,4-Oxadiazol-2-yl)pyridin-4-yloxy)phenyl)-2-(4-fluoro-3-(trifluoromethyl)phenyl)acetamide]: the results for the IC50 (in test [1]; against VEGFR2 kinase; on PDGFRβ kinase) were above 10 µM, at most 10 µM and above 10 µM, respectively.
As for `Cn1cc(-c2cc(Oc3cccc(NC(=O)c4ccc5c(c4)C(=O)OC5=O)c3)ccn2)cn1` [Example 63, N-(3-(2-(1-Methyl-1H-pyrazol-4-yl)pyridin-4-yloxy)phenyl)-1,3-dioxo-1,3-dihydroisobenzofuran-5-carboxamide], the IC50 in test [1] was at most 10 µM; on VEGFR2 kinase it was above 10 µM; against PDGFRβ kinase, at most 10 µM.
In the case of `Cn1cc(-c2cc(Oc3cccc(NC(=O)c4cccc(Oc5ccccc5)c4)c3)ccn2)cn1` [Example 55, N-(3-(2-(1-Methyl-1H-pyrazol-4-yl)pyridin-4-yloxy)phenyl)-3-phenoxybenzamide], the IC50 in test [1] was above 10 µM; against VEGFR2 kinase, at most 10 µM; at PDGFRβ kinase it was above 10 µM.
As to `Cn1cc(-c2cc(Oc3ccc(NC(=O)c4ccc(Cl)c(C(F)(F)F)c4)cc3)ccn2)cn1` [Example 22, 4-Chloro-N-(4-(2-(1-methyl-1H-pyrazol-4-yl)pyridin-4-yloxy)phenyl)-3-(trifluoromethyl)benzamide], the IC50 (in test [1]; against VEGFR2 kinase; against PDGFRβ kinase) was at most 10 µM in each case.
As to `Cn1cc(-c2cc(Oc3cccc(NC(=O)c4cccc5cc[nH]c45)c3)ccn2)cn1` [Example 71, N-(3-(2-(1-Methyl-1H-pyrazol-4-yl)pyridin-4-yloxy)phenyl)-1H-indole-7-carboxamide], the IC50 is at most 10 µM in test [1], above 10 µM against VEGFR2 kinase and above 10 µM against PDGFRβ kinase.
Regarding `Cn1cc(-c2cc(Oc3cccc(NC(=O)c4ccc5occc5c4)c3)ccn2)cn1` [Example 66, N-(3-(2-(1-Methyl-1H-pyrazol-4-yl)pyridin-4-yloxy)phenyl)benzofuran-5-carboxamide], the IC50 (in test [1]; at VEGFR2 kinase; on PDGFRβ kinase) was above 10 µM each time.
On to `Cn1cc(-c2cc(Oc3cccc(NC(=O)c4cccc(C(=O)c5ccccc5)c4)c3)ccn2)cn1` [Example 50, 3-Benzoyl-N-(3-(2-(1-methyl-1H-pyrazol-4-yl)pyridin-4-yloxy)phenyl)benzamide], for which the IC50 in test [1] was above 10 µM; at VEGFR2 kinase, at most 10 µM; on PDGFRβ kinase, above 10 µM.
As to `Cn1cc(-c2cc(Oc3cccc(NC(=O)c4cccc5ccccc45)c3)ccn2)cn1` [Example 52, N-(3-(2-(1-Methyl-1H-pyrazol-4-yl)pyridin-4-yloxy)phenyl)-1-naphthamide], the IC50 (in test [1]; against VEGFR2 kinase; against PDGFRβ kinase) was above 10 µM throughout.
In the case of `Cn1cc(-c2cc(Oc3cccc(NC(=O)c4cccc(C#N)c4)c3)ccn2)cn1` [Example 46, 3-Cyano-N-(3-(2-(1-methyl-1H-pyrazol-4-yl)pyridin-4-yloxy)phenyl)benzamide], the IC50 in test [1] is at most 10 µM; on VEGFR2 kinase, above 10 µM; against PDGFRβ kinase it was above 10 µM.
In the case of `CCOc1cc(C(=O)Nc2cccc(Oc3ccnc(-c4nnco4)c3)c2)cc(OCC)c1OCC` [Example 2, N-(3-(2-(1,3,4-Oxadiazol-2-yl)pyridin-4-yloxy)phenyl)-3,4,5-triethoxybenzamide], the IC50 in test [1] is above 10 µM; at VEGFR2 kinase it was at most 10 µM; on PDGFRβ kinase, above 10 µM.
With `Cn1cc(-c2cc(Oc3cccc(NC(=O)c4ccccc4OC(F)(F)F)c3)ccn2)cn1` [Example 39, N-(3-(2-(1-Methyl-1H-pyrazol-4-yl)pyridin-4-yloxy)phenyl)-2-(trifluoromethoxy)benzamide], the IC50 in test [1] was at most 10 µM; on VEGFR2 kinase it was above 10 µM; against PDGFRβ kinase it was above 10 µM.
